Test results taken from patent US4637901A, “N-(alpha-haloacyl)-N-hydrocarbyl carbamoyl halides” (priority 1985, dated 1987).
≈ marks a conversion by molar mass, not a printed value.

Legend:
Format in all cases: in vivo
[1] = tested on: Bean Aphid (Aphis fabae Scop.); experiment: Bean Aphid Foliage Spray Test; settings: foliar, potted dwarf nasturtium plants, 24 hour holding period, read-out: Biological activity (LD50 in ppm), Bean Aphid
Method: (§1) Suspensions of the test compounds were prepared by dissolving one gram of compound in 50 milliliters of acetone in which had been dissolved 0.1 gram (10 percent of the weight of compound) of an alkylphenoxy polyethoxyethanol surfactant, as an emulsifying or dispersing agent. The resulting solution was mixed into 150 milliliters of water to give roughly 200 milliliters of a suspension containing the compound in finely divided form. The thus-prepared stock suspension contained 0.5 percent by weight of compound.
(§2) Certain of the test compounds were also prepared by dissolving 375 mg of compound in 7.5 ml of dimethylformamide. Fifteen ml of acetone containing 37.5 mg (10 percent of the weight of test compound) of an alkylphenoxy polyethoxyethanol surfactant, as a wetting/emulsifying/dispersing agent was added to the dimethylformamide solution. Fifty-two and a half ml of water was mixed into the dimethylformamide-acetone mixture to give roughly 75 ml of a suspension containing the compound in solution or in finely divided form. The thus prepared stock suspension contained 0.5 percent by weight of compound. The test concentrations in parts per million by weight employed in the tests described hereinbelow were obtained by appropriate dilutions of the stock suspension with water. The test procedures were as follows:
Bean Aphid Foliage Spray Test
Adults and nymphal stages of the bean aphid (Aphis fabae Scop.) reared on potted dwarf nasturtrium plants at 68°-70° F. and 50±5 percent relative humidity, constituted the test insects. For testing purposes, the number of aphids per pot was standardized to 100-150 by trimming plants containing excess aphids. […]
The potted plants (one pot per compound tested) infested with 100-150 aphids were placed on a revolving turntable and sprayed with 100-110 milliliters of test compound formulation by use of a DeVilbiss spray gun set at 40 psig air pressure. […] Percent mortality was recorded for various concentration levels.

[2] = tested on: Southern Armyworm (Spodoptera eridania, (Cram.)) larvae; experiment: Southern Armyworm Leaf Spray Bait Test; settings: 120 h, five days, read-out: Biological activity (LD50 in ppm), Southern Army Worm
Method: as §1, §2
Southern Armyworm Leaf Spray Bait Test
Larvae of the southern armyworm (Spodoptera eridania, (Cram.)), reared on Tendergreen bean plants at a temperature of 80°±5° F. and a relative humidity of 50±5 percent, constituted the test insects.
The test compounds were formulated by diluting the stock suspension with water to give a suspension containing 500 parts of test compound per million parts of final formulation. Potted Tendergreen bean plants of standard height and age were placed on a revolving turntable and sprayed with 100-110 milliliters of test compound formulation by use of a DeVilbiss spray gun set at 40 psig air pressure. This application, which lasted 25 seconds, was sufficient to wet plants to run-off. […] Percent mortality was recorded for various concentration levels.

[3] = tested on: Mexican Bean Beetle (Epilachna varivestis, Muls.) larvae; experiment: Mexican Bean Beetle Leaf Spray Test; settings: 120 h, five days, read-out: Biological activity (LD50 in ppm), Mexican Bean Beetle
Method: as §1, §2
Mexican Bean Beetle Leaf Spray Test
Fourth instar larvae of the Mexican bean beetle (Epilachna varivestis, Muls.), reared on Tendergreen bean plants at a temperature of 80°±5° F. and 50±5 percent relative humidity, were the test insects.
For certain of the tests second instar larvae (weighing about 6 mg) of the Mexican bean beetle (Epilachna varvestis, Muls), reared on Seiva Pole lima bean plants at a temperature of 80°±5° F. and […] relative humidity, were the test insects.
The test compounds were formulated by diluting the stock suspension with water to give a suspension containing 500 parts of test compound per million parts of final formulation. […]

[4] = tested on: House Fly (Musca domestica, L.); experiment: Fly Bait Test; settings: 24 h, adult flies, sugar bait, twenty-four hours, read-out: Biological activity (LD50 in ppm), House Fly
Method: as §1, §2
Four to six day old adult house flies (Musca domestica, L.), reared according to the specifications of the Chemical Specialties Manufacturing Association (Blue Book, McNair-Dorland Co., N.Y. 1954; pages 243-244, 261) under controlled conditions of 80°±5° F. and 50±5 percent relative humidity, were the test insects. The flies were immobilized by anesthetizing with carbon dioxide and twenty-five immobilized individuals, males and females, were transferred to a cage consisting of a standard food strainer about five inches in diameter which was inverted over a wrapping-paper-covered surface. […]

[5] = tested on: certain mites and insects including the Bean Aphid, Southern Army Worm, Mexican Bean Beetle and house fly; experiment: Pesticidal activity against certain mites and insects (overall comparison); settings: for activity in words (comparison as set forth in Table I): prior art derivatives compared with derivatives of the invention
Method: A comparision of an oxime derivative of the novel compounds of this invention was evaluated to determine its pesticidal activity against certain mites and insects including the Bean Aphid, Southern Army Worm, Mexican Bean Beetle and house fly. The oxime derivative was also compared with typical derivative of this oxime as disclosed in British Pat. No. 1,226,450.
as §1
as §2, with “water.” for “water. The test procedures were as follows:”

Structure (SMILES)	LC50 [1]	LC50 [2]	LC50 [3]	LC50 [4]	activity in words (comparison as set forth in Table I) [5]	pesticidal properties (in words) ([5]; trimethyl amine salt of the N-haloacylcarbamate)
CSC(C)=NOC(=O)N(C)C(=O)CCl [(XII)]	16 µg/mL (≈ 67 µM)	20 µg/mL (≈ 83.8 µM)	35 µg/mL (≈ 147 µM)	6 µg/mL (≈ 25.1 µM)		
CSC(C)=NOC(=O)N(C)C(=O)CCCCl [(XIVa)]	37 µg/mL (≈ 139 µM)	310 µg/mL (≈ 1160 µM)	310 µg/mL (≈ 1160 µM)	25 µg/mL (≈ 93.7 µM)	less active or inactive	
CCC(=O)N(C)C(=O)ON=C(C)SC [(XIVb)]	500 µg/mL (≈ 2290 µM)	60 µg/mL (≈ 275 µM)	200 µg/mL (≈ 916 µM)	500 µg/mL (≈ 2290 µM)	less active or inactive	
COC(=O)Nc1ccc(OC(=O)N(C)C(=O)C[N+](C)(C)C)cc1C(C)C						excellent pesticidal properties
